Assay results as given in US4503055A, “Derivatives of [4-(piperazin-1-yl-phenyloxymethyl)-1,3-dioxolan-2-ylmethyl]-1H-imidazol es and 1H-1,2,4-triazoles” (Janssen Pharmaceutica, N.V., priority 1981, dated 1985).

Key:
[1] = test system: Candida albicans; test: Activity against vaginal candidosis in rats; type: in vivo, Female Wistar rats; conditions: 336 h, oral, once a day for two days from day of infection, active at the 14th day after infection, read-out: Vaginal candidosis in rats: lowest effective dose in mg/kg orally
Method: Female Wistar rats of ±100 g body weight are used. They are ovariectomized and hysterectomized and after three weeks of recovery, 100 μg of oestradiol undecylate in sesame oil is given subcutaneously once a week for 3 consecutive weeks. The thus induced pseudooestrus is controlled by microscopic examination of vaginal smears. Food and water are left available ad libitum. The rats are infected intravaginally with 8.10^5 cells of Candida albicans, grown on Sabouraud broth for 48 hours at 37° C. and diluted with saline. The date of infection varies from day +25 to day +32 after surgical intervention, depending on the appearance of signs of induced pseudooestrus. The drugs under investigation are administered orally once a day for two days starting from the day of infection. For each experiment there are placebo treated controls. The results are assessed by taking vaginal smears with sterile swabs on several days after the infection. The swabs are put into Sabouraud broth in petri-dishes and incubated for 48 hours at 37° C. If no growth of Candida albicans occurs, i.e., when the animals are negative at the end of the experiment, this is due to drug administration because it never happens in placebo treated controls. The table below gives the lowest oral dose of the drug under investigation which is found active at the 14th day after infection.

[2] = test system: Candida albicans; test: Activity against crop candidosis in turkeys; type: in vivo; conditions: medicated feed for 13 consecutive days from day of infection, crops of 50% of animals completely negative for Candida albicans
Method: Turkeys of 14 days old are infected in the crop with 4.10^6 Candida albicans cells, grown on Sabouraud broth for 48 hours at 37° C. and diluted with saline. The volume of the inoculum is 1 ml. The drugs under investigation are premixed in 500 mg of lacton and thereafter admixed in 1000 g of meal without any additives. The concentration of the drug under investigation in the meal is expressed in mg/kg. The animals are given the medicated feed for 13 consecutive days starting on the day of infection. At the end of the experiment all animals are sacrificed. At autopsy the crops are removed, emptied and grinded in an ultra-turrax mixer in 15 ml of sterile saline. Colony counting is done on Sabouraud agar and the results given in the table represents the ED50, i.e., the dose of the drug whereby the crops of 50% of the animals are completely negative for Candida albicans.

| Compound | minimal effective dose [1] | Crop candidosis in turkeys: ED50 in mg/kg feed [2] |
| --- | --- | --- |
| O=C(CN1CCN(c2ccc(OC[C@H]3CO[C@](Cn4ccnc4)(c4ccc(Cl)cc4Cl)O3)cc2)CC1)Nc1c(Cl)cccc1Cl (relative stereo) | 2.5 mg/kg | 31 mg/kg feed |
| CCOC(=O)COC(=O)N1CCN(c2ccc(OC[C@H]3CO[C@](Cn4ccnc4)(c4ccc(Cl)cc4Cl)O3)cc2)CC1 (relative stereo) | 2.5 mg/kg | 31 mg/kg feed |
| Clc1ccc(CN2CCN(c3ccc(OC[C@H]4CO[C@](Cn5ccnc5)(c5ccc(Cl)cc5Cl)O4)cc3)CC2)cc1 (relative stereo) |  | < 31 mg/kg feed |
| Cc1ccccc1NC(=O)CN1CCN(c2ccc(OC[C@H]3CO[C@](Cn4ccnc4)(c4ccc(Cl)cc4Cl)O3)cc2)CC1 (relative stereo) | 2.5 mg/kg | 16 mg/kg feed |
| Cc1ccc(S(=O)(=O)N2CCN(c3ccc(OC[C@H]4CO[C@](Cn5cncn5)(c5ccc(Cl)cc5Cl)O4)cc3)CC2)cc1 (relative stereo) |  | < 31 mg/kg feed |
| Cc1ccc(NC(=O)CN2CCN(c3ccc(OC[C@H]4CO[C@](Cn5ccnc5)(c5ccc(Cl)cc5Cl)O4)cc3)CC2)cc1 (relative stereo) |  | 16 mg/kg feed |
| O=C(C=Cc1ccc(Cl)cc1)N1CCN(c2ccc(OC[C@H]3CO[C@](Cn4cncn4)(c4ccc(Cl)cc4Cl)O3)cc2)CC1 |  | 16 mg/kg feed |
